Test results as given in patent US20020137929A1, “1 - (3-heterocyclylphenyl) isothiourea, -isourea, -guanidine and -amidine herbicidal agents” (Intellectual Property Department, BASF Aktiengesellschaft, priority 1998, published 2002).

Experiments:
[1] = tested on: AMBEL (Ragweed, Common); assay: Postemergence herbicidal evaluation; format: in vivo, Ambrosia artemisifolia; conditions: postemergence
Summary of the method: (§1)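 Each compound, dispersed in an acetone/water mix (50/50) carrying 0.5% TWEEN 20, is nozzle-sprayed at 40 psi on approximately two-week-old seedlings at about 0.0156–0.500 kg/ha. Plants are assessed 4–5 weeks afterward on a 0–9 scale relative to control; duplicate tests are averaged.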

[2] = tested on: GALAP (Galium); assay: Postemergence herbicidal evaluation; format: in vivo, Galium aparine; conditions: postemergence
Summary of the method: as §1

[3] = tested on: TRZAWR (Wheat, Winter, cv Riband); assay: Postemergence herbicidal evaluation; format: in vivo, Triticum aestivum; conditions: postemergence
Summary of the method: as §1

[4] = tested on: CHEAL (Lambsquarters, Common); assay: Preemergence herbicidal evaluation; format: in vivo, Chenopodium album; conditions: preemergence, rated 4-5 weeks after treatment, 0-9 scale
Summary of the method: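 Test compound, dissolved in aqueous acetone, was sprayed over planted soil cups at an equivalent of about 0.0156 to 0.500 kg/ha; seeds had been mixed with potting soil. Greenhouse growth followed, with visual 0-9 scoring of injury at four to five weeks.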

[5] = tested on: MOOVA (Monochoria); assay: Postemergence weed control under flooded paddy conditions; format: in vivo, Monochoria vaginalis; conditions: postemergence weeds, rated 3 to 4 weeks after treatment
Summary of the method: (§2)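 Herbicidal effect is judged by eye on a 0–9 scale versus control, 3–4 weeks after dosing. Dosing is into flood water kept 1.5–3 cm over the soil, at about 0.0313–0.500 kg/ha in aqueous/acetone 50/50 v/v, on 3–5 cm weeds and 1.5–2.5-leaf rice seedlings.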

[6] = tested on: SAGPY (Arrowhead (Pygmaea)); assay: as above; format: in vivo, Sagittaria pygmaea; conditions: postemergence weeds, rated 3 to 4 weeks after treatment
Summary of the method: as §2

SMILES | AMBEL herbicidal rating ([1]; rate 0.0156 kg/ha) | AMBEL herbicidal rating ([1]; rate 0.0313 kg/ha) | AMBEL herbicidal rating ([1]; rate 0.0625 kg/ha) | AMBEL herbicidal rating ([1]; rate 0.1250 kg/ha) | GALAP herbicidal rating ([2]; rate 0.0156 kg/ha) | GALAP herbicidal rating ([2]; rate 0.0313 kg/ha) | GALAP herbicidal rating ([2]; rate 0.0625 kg/ha) | GALAP herbicidal rating ([2]; rate 0.1250 kg/ha) | TRZAWR herbicidal rating ([3]; rate 0.0156 kg/ha) | TRZAWR herbicidal rating ([3]; rate 0.0313 kg/ha) | TRZAWR herbicidal rating ([3]; rate 0.0625 kg/ha) | TRZAWR herbicidal rating ([3]; rate 0.1250 kg/ha) | CHEAL rating ([4]; 0.0313 kg/ha) | CHEAL rating ([4]; 0.0625 kg/ha) | CHEAL rating ([4]; 0.1250 kg/ha) | CHEAL rating ([4]; 0.2500 kg/ha) | Herbicidal rating MOOVA ([5]; Rate 0.0313 kg/ha) | Herbicidal rating MOOVA ([5]; Rate 0.0625 kg/ha) | Herbicidal rating MOOVA ([5]; Rate 0.1250 kg/ha) | Herbicidal rating MOOVA ([5]; Rate 0.2500 kg/ha) | further results
C=CCN1C(=O)C(CC(=O)NS(C)(=O)=O)SC1=Nc1cc(-n2c(=O)cc(C(F)(F)F)n(C)c2=O)c(F)cc1Cl (centres unmarked) [Compound 96, 3-Allyl-2-{{2-chloro-5-[3,6-dihydro-3-methyl-2,6-dioxo-4-(trifluoromethyl)-1(2H)-pryimidinyl]-4-fluorophenyl}imino}-N-(methylsulfonyl)-4-oxo-5-thiazolidineacetamide] | 3.0 | 4.0 | 7.0 | 7.0 | 0.0 | 0.0 | 1.0 | 0.0 | 2.0 | 2.5 | 2.5 | 3.0 | 2.0 | 2.0 | 3.0 | 9.0 | 2.0 | 2.0 | 3.0 | 3.0 | CHEAL rating ([4]; 0.5000 kg/ha): 9.0
CCOC(=O)CN1C(=O)C(CC(=O)NO)S/C1=N/c1cc(-n2c(=O)cc(C(F)(F)F)n(C)c2=O)c(F)cc1Cl (centres unmarked) [Compound 98, Ethyl 2-{{2-chloro-5-[3,6-dihydro-3-methyl-2,6-dioxo-4-(trifluoromethyl)-1(2H)-pyrimidinyl]-4-fluorophenyl}imino}-5-[(hydroxycarbamoyl)methyl]-4-oxo-3-thiazolidineacetate] | 3.0 | 3.0 | 4.0 | 9.0 | 0.0 | 0.0 | 0.0 | 1.0 | 2.5 | 2.5 | 3.0 | 3.0 | 2.0 | 5.0 | 7.0 | 9.0 | 9.0 | 9.0 | 9.0 | 9.0 | CHEAL rating ([4]; 0.0156 kg/ha): 0.0; CHEAL rating ([4]; 0.5000 kg/ha): 9.0
C=CCN1C(=O)C(CC(=O)NS(=O)(=O)c2ccccc2)SC1=Nc1cc(-n2c(=O)cc(C(F)(F)F)n(C)c2=O)c(F)cc1Cl (centres unmarked) [Compound 101, 3-Allyl-2-{{2-chloro-5-[3,6-dihydro-3-methyl-2,6-dioxo-4-(trifluoromethyl)-1(2H)-pyrimidinyl]-4-fluorophenyl}imino}-4-oxo-N-(phenylsulfonyl)-5-thiazolidineacetamide] |  |  |  |  |  |  |  |  |  |  |  |  |  |  |  |  | 5.0 | 5.0 | 7.0 | 9.0 | Herbicidal rating AMBEL ([1]; rate 0.0156 kg/ha): 9.0; Herbicidal rating AMBEL ([1]; rate 0.0313 kg/ha): 7.0; Herbicidal rating AMBEL ([1]; rate 0.0625 kg/ha): 9.0; Herbicidal rating AMBEL ([1]; rate 0.1250 kg/ha): 9.0; Herbicidal rating GALAP ([2]; rate 0.0156 kg/ha): 0.0; Herbicidal rating GALAP ([2]; rate 0.0313 kg/ha): 1.0; Herbicidal rating GALAP ([2]; rate 0.0625 kg/ha): 1.0; Herbicidal rating GALAP ([2]; rate 0.1250 kg/ha): 2.0; Herbicidal rating TRZAWR ([3]; rate 0.0156 kg/ha): 3.0; Herbicidal rating TRZAWR ([3]; rate 0.0313 kg/ha): 3.5; Herbicidal rating TRZAWR ([3]; rate 0.0625 kg/ha): 4.0; Herbicidal rating TRZAWR ([3]; rate 0.1250 kg/ha): 5.0; Herbicidal rating MOOVA ([5]; Rate 0.5000 kg/ha): 9.0; Herbicidal rating SAGPY ([6]; Rate 0.0313 kg/ha): 0.0; Herbicidal rating SAGPY ([6]; Rate 0.0625 kg/ha): 0.0; Herbicidal rating SAGPY ([6]; Rate 0.1250 kg/ha): 0.0; Herbicidal rating SAGPY ([6]; Rate 0.2500 kg/ha): 2.0; Herbicidal rating SAGPY ([6]; Rate 0.5000 kg/ha): 4.0
